Laboratory results: a melting point compilation (Tetko et al.; mined from patent text by program, amines drawn as free bases though some values may be those of a salt)

Compound | melting point
Cc1cc(C)c(C)c(COc2cccc(-c3c(-c4ccccc4)coc3C(=O)NNC(=O)c3ccc(O)c(C#N)c3)c2)c1C | 207 to 209 °C
CC(CC(=O)Nc1cccc(/C=C/c2nc(C3CCC3)cs2)c1)C(=O)O (stereo not given) | 165 to 167 °C
CSc1oc2ccc(Br)cc2c(=O)c1-c1ccc(Cl)cc1 | 205 to 206 °C
CC#CCOc1ccc(S(=O)(=O)C2(C(=O)O)CCN(Cc3ccc(F)cc3)CC2)cc1 | 106 °C
CC1(N)CN(c2c(F)cc3c(=O)c(C(=O)O)cn(-c4ccc(F)cc4)c3c2F)C1 | 272 to 277 °C
CS(=O)(=O)c1ccc(C(CC2CCCC2)C(=O)Nc2ncc[nH]2)cc1[N+](=O)[O-] (stereo not given) | 243 to 244 °C
CC(CO)Oc1cc(-n2nc3n(c2=O)CCCC3)c(Cl)cc1Cl (stereo not given) | 54 to 57 °C
CC1(C)C(=O)c2c(cc(O)c(Cl)c2Cl)C1c1ccccc1 (stereo not given) | 259 to 262 °C
Cc1csc(-c2sc(Br)cc2-c2ccc(F)cc2)c1 | 113 to 116 °C
C=CCOC(=O)c1cccc(C2=Nc3cc(C)c(-c4cccc(CF)c4)cc3NC(=O)C2)c1 | 226 to 228 °C
COC(=O)CCC(=O)c1cc(NC(C)=O)ccc1OCC1CO1 (stereo not given) | 84 to 87 °C
Cc1cc([N+](=O)[O-])cc2c1OCC2 | 80 to 81 °C
COc1ccc(N2CCOCC2)c2sc(C(=O)NC3CCN(C(=O)OC(C)(C)C)CCC3=O)nc12 (stereo not given) | 95 to 97 °C
Cc1cc(C=O)c(OCCCCCCBr)c(C=O)c1 | 46 °C
OC1(O)C(F)(F)CCCC1(Cl)Cl | 30 °C
CCCn1c(=O)c2c(nc(/C=C/c3ccc(Cl)c(Cl)c3)n2C)n(CCC)c1=O | 125 to 136 °C
CC(C)(C)OC(=O)N1CCN(Cc2ccccc2)C[C@H]1C(c1ccccc1)c1ccccc1 | 108 to 109 °C
CCCn1c(=O)c2nc(-c3ccc(/C=C/C(=O)OCC)cc3)[nH]c2n(CCC)c1=O | > 300 °C
NS(=O)(=O)c1ccccc1C1CO1 (stereo not given) | 136 to 139 °C
O=c1[nH]c2cc([N+](=O)[O-])c(-n3ccc(C=NO)c3)cc2n(C2CCCCC2)c1=O | 234 °C
CCCCCCC(Cc1ccc(OCCN2CCCCCC2)cc1)(C(=O)NO)S(=O)(=O)c1ccc(OC)cc1 (stereo not given) | 65 °C
CN1CC=C(c2cccc3ccc(O)cc23)CC1 | 182 to 184 °C
COc1ccc2c(C)cc(=O)oc2c1C | 162 to 164 °C
CCC1(CC)C(=O)N(C(C)(C)C)CC(C)(C)N1OC(C(=O)O)c1ccccc1 (stereo not given) | 125 to 133 °C
COC(=O)c1sc(C)c(O)c1O | 116 to 117 °C

Compound | melting point
CCc1nn(CCO)c(CC)c1C(=O)c1cc(Cl)cc(Cl)c1 | 134 °C
COCNC(=O)C1C(c2ccc(F)cc2)CC2CCC1N2C (stereo not given) | 140 to 142 °C
CCN(C)C(=O)c1nn(-c2ccc(Cl)cc2)c(=O)c2c(N)scc12 | 148 to 150 °C
Nc1nc(Cl)nc(Cl)c1[N+](=O)[O-] | 161 to 162 °C
COc1cc(C(O)CN(c2nc3ccccc3[nH]2)C(C)CCn2cnc3ccccc32)ccc1OCc1ccccc1 (stereo not given) | 170 to 180 °C
Cn1nc(-c2cccc(-n3ncc4cc(C(C)(C)C)cc(F)c4c3=O)c2CO)cc(Nc2ccn(C[C@@H](O)CO)n2)c1=O | 245 to 250 °C
COc1cc(NC(=O)c2csc(NC(=O)NCc3ccccc3)n2)ccc1OCC(=O)O | 210 °C
COc1ccc2c(OC(C)C)c(C(N)=O)sc2c1 | 164 to 166 °C
O=C(O)CC[C@H]1CC[C@H]2CN[C@H](C(=O)O)C[C@H]2C1 (racemic) | 190 to 191 °C
CC(C)(C)OC(=O)c1nc2ccc(NCCCN3CCC(OC(c4ccccc4)c4ccccc4)CC3)nn2n1 | 133 to 135 °C
O=C(O)c1ccccc1Nc1cccc(/C=C/c2nc3ccccc3s2)c1 | 146 to 150 °C
COCCc1cccc2oc(C(=O)Nc3ccc(-c4ccc(S(=O)(=O)NC(C(=O)OC)C(C)C)cc4)cc3)c(C)c12 (stereo not given) | 67 to 70 °C
CN1CCN(C2CC3C4CCC5CC(O)C(N6CCC(O)CC6)CC5(C)C4CCC3(C)C2O)CC1 (stereo not given) | 248 to 250 °C
C#CCCC(=O)Oc1cc(-n2c(OC)nc(C(F)(F)C(F)(F)F)c(F)c2=O)c(F)cc1Cl | 107 to 109 °C
CO/N=C1\CCCC[C@@H]1NC(=O)c1cnc(O[C@@H](C)C(F)(F)F)c(-c2ccc(Cl)cc2)n1 | 120 to 123 °C
N=C(Nc1ccc(CNCc2ccccc2)cc1)c1cccs1 | 73 to 74 °C
Cc1cnc2[nH]cc(/C=C3\N=C(N4CCN(c5ccccc5)CC4)NC3=O)c2c1 | 331 to 332 °C
CN(C)CCOc1nccc(-c2c(-c3ccc(F)cc3)ncn2C2CCC(=O)CC2)n1 | 84 to 86 °C
CCN(CC)C(=O)n1cc(Cl)c(S(=O)(=O)c2c(C)cc(C)cc2C)n1 | 84 to 86 °C
Oc1ccc2cc(OCCN3CCC(Cc4ccc(F)cc4)CC3)ccc2c1 | 184 to 185 °C
OCc1ccccc1CBr | 61 to 63 °C
Nc1ncnc2c1ncn2C1CC(O)C2CC21 (stereo not given) | 259 to 261 °C
O=C(OI(OC(=O)C(F)(F)F)C(F)(F)C(F)(F)C(F)(F)C(F)(F)C(F)(F)C(F)(F)F)C(F)(F)F | 60 to 62 °C
CC(C)(CCCCCCCc1c(-c2ccccc2)nc(-c2ccccc2)n1-c1ccccc1)C(=O)O | 119 to 120 °C
CNc1ccc(-c2nc3ccc(F)cc3s2)cc1 | 154 °C

Compound | melting point
NC(=O)CNC(=S)Nc1c(Cl)cccc1Cl | 189 to 191 °C
Cc1cc(S(=O)(=O)NCC(O)(CO)c2ccccc2)ccc1Cl (stereo not given) | 105 to 106 °C
CCCCC1=N/C(=C\c2c[nH]c3ncccc23)C(=O)N1C | 220 to 222 °C
C=Cc1ccc(NC(C)=O)nc1 | 120 to 121 °C
COC(=O)C1=CCN=C(c2ccccc2F)c2cc(Cl)ccc21 | 106 to 107 °C
CC(=O)NC1CCC2=C(CC1)C(=O)CC=C2 (stereo not given) | 115 to 116 °C
CCOc1ccc(C2=NN(C3CCCCC3)C(=O)[C@H]3CC=CC[C@@H]23)cc1OCC (relative stereo) | 147 to 148 °C
CCOC(=O)c1nc(N)sc1C(=O)c1ccccn1 | 143 to 144 °C
O=C1CCC(c2ccc(-n3ccc(=O)cc3)cc2)=NN1 | 270 to 272 °C
CCC(=O)C(=Cc1cc(O)c(O)c([N+](=O)[O-])c1)C(=O)CC | 133 to 135 °C
CC(=O)OC(C)(C)c1nnc(-c2ccc3occ(-c4cc(F)ccc4F)c3c2)o1 | 125 to 126 °C
O=C(O)c1cc(Cl)c(Cl)c2c1OCC(CO)O2 (stereo not given) | 175 to 177 °C
CCCCc1ccnc(C2(C(=S)NC)CCCS2)c1 (stereo not given) | 102 °C
O=[N+]([O-])c1oc2ccc(NCc3ccccc3)cc2c1-c1ccccc1 | 118 to 120 °C
Cc1cc(-c2nc3cccnn3c2-c2ccnc(NC(=O)c3ccnc(Cl)c3)c2)ccc1F | 224 to 225 °C
COc1ccc(CCOc2ccc(NC(=O)N(C)OC)cc2)cc1 | 100 to 101 °C
CCCCN(c1nc(NCCCCCCN)nc(N(CCCC)C2CC(C)(C)N(C)C(C)(C)C2)n1)C1CC(C)(C)N(C)C(C)(C)C1 | 125 °C
OCc1cc(-c2ccccc2)cs1 | 112 to 113 °C
CCc1cc(C(=O)c2ccccc2Cl)c(-n2c(CNC(=O)c3cc4ccccc4[nH]3)nnc2C23CC4CC(CC(C4)C2)C3)s1 | 283 to 286 °C
CCCC(Cc1ccc(OCCN2CCCCCC2)cc1)(C(=O)OCC)S(=O)(=O)c1ccc(OC)cc1 (stereo not given) | 55 °C
CON=Cc1cc(-n2c(=S)cc(C(F)(F)F)n(N)c2=O)c(F)cc1Cl | 172 to 174 °C
CCOC(=O)C(=O)CC(=O)c1cn(Cc2ccc(F)cc2)c2cc(Cl)c(Cl)cc2c1=O | 144 to 145 °C
CC(C)(C)C(=O)Oc1ccc(OC(=O)C(C)(C)C)c(C(=O)O)c1 | 159 to 162 °C
CCN(CC)CCSCC(=O)c1ccc2[nH]c3ncc(Cl)cc3c2c1 | 137 to 138 °C
O=C1C=C(NC(=O)C(=O)c2cn(Cc3c(F)c(F)c(F)c(F)c3F)c3ccccc23)CO1 | 280 to 282 °C

Compound | melting point
CCc1nn(Cc2cc(=O)[nH]c(N)n2)c(CC)c1Oc1cc(Cl)cc(Cl)c1 | 238 to 240 °C
c1ccc(OCCSCc2nnc(-c3ccc(OCCCCN4CCCCC4)cc3)o2)cc1 | 57 to 62 °C
Cc1cnc2c(C#N)cnn2c1-c1ccc(Cl)cc1 | 154 to 157 °C
CN1CCN(c2cccc3c2ccn3S(=O)(=O)c2ccc(F)cc2)CC1 | 151 to 152 °C
O=C(Nc1ccc2c(c1)CCC(CCl)=C2)c1ccc(-c2ccc(Cl)cc2)cc1 | 179 to 181 °C
CNC(=S)NCCN1CCCCC1 | 166 °C
CCCCC(Cn1cncn1)(NC(C)=O)c1ccc(Cl)cc1 (stereo not given) | 178 to 179 °C
COC(=O)CN(NC(N)=O)c1ccc(Oc2ccccc2)cc1 | 110 to 113 °C
O=Cc1c(Cl)cc(Cl)cc1OCc1ccccc1 | 98 to 100 °C
CCc1nnc(-c2ccc(OC)cc2)n1-c1ccc(OC)c(OC)c1 | 150 °C
Cc1nc(-c2sc(-c3ccc(Cl)cc3)nc2C)sc1C(=O)N[C@H](C)[C@](O)(Cn1cncn1)c1ccc(F)cc1F | 110 to 114 °C
COc1cc(OC)c(C=O)cn1 | 97 to 98 °C
CC1C(=O)Nc2cc(N)c(N)cc21 (stereo not given) | > 300 °C
O=C1CCC(=O)N1Sc1ccccc1 | 110 to 112 °C
O=C(O)COCCOCCN1CCC(=C(c2ccccc2)c2ccccc2)CC1 | 120 to 123 °C
CCCCCCCCCCCCCCS(=O)(=O)N[C@H]1CCCNC(=O)C1 | 100 to 101 °C
CC(C)(C)OC(=O)C(ON1C(=O)c2ccccc2C1=O)c1ccccc1 (stereo not given) | 121 to 122 °C
CC(C)C(=O)c1nccnc1SCc1ccco1 | 57 to 58 °C
O=C(Nc1cccc2c(=O)cc(-c3nnn[nH]3)oc12)c1ccc2c(c1)CC(COCc1ccccc1)O2 (stereo not given) | 200 to 202 °C
CN1CC(CCl)C(c2ccccc2)(c2ccccc2)C1=O (stereo not given) | 120 to 122 °C
CCCN1N=C2C(=Cc3ccccc3)CS(=O)(=O)CC2C1c1ccccc1 (stereo not given) | 197 to 199 °C
CCn1nc(C)cc1C(=O)OC | 130 to 133 °C
O=S(=O)(Nc1ccc(C(F)(F)F)cc1Cl)c1cc(C(F)(F)F)ccc1Cl | 122 to 123 °C
CCOc1ccc(-n2nnnc2C(F)(F)F)cc1C=O | 87.9 to 88.4 °C
Cc1cc2c3c(c1)C(=O)C(=O)N3CCC2 | 188 °C
